In patent publication US20230357242A1, “COMPOUND AS AKT KINASE INHIBITOR” (CHIA TAI TIANQING PHARMACEUTICAL GROUP CO., LTD., priority 2020, published 2023) one finds IC50 data, which are given here for 37 compounds.

The IC50 is the midpoint of a concentration-inhibition curve.

In assay [1] the test system is LNcap cells. The experiment in a line: Inhibitory effect on proliferation of LNcap cells (CCK-8, 72 h). In kind it is cell-based. The settings on record: Homo sapiens. On the procedure:
A dish of LNcap cells (human prostate cancer cells with PTEN deficiency) growing at log phase and in good conditions were taken and digested for 3 min by using 1 mL of pancreatin, then the mixture was added with 4 mL of complete culture medium to terminate digestion, and the cells were added to a centrifuge tube. 20 μL of cells were taken and counted, the required number of cells (mL) was pipetted and centrifuged at 1200 rpm for 5 min, the supernatant was discarded, and an appropriate amount of plating medium (RPMI medium+5% FBS+1% sodium pyruvate+1% glutamine) was added to adjust the cell density to 3×10^4 cells/mL. The cells were seeded on a 96-well plate at 100 μL/well using a multi-channel pipette and cultured in a cell incubator at 37° C., 5% CO2 and saturated humidity. After incubation overnight, compounds were loaded using a nanoliter pipettor, 2 duplicate wells were set for each concentration, and cells without compound were used as negative controls. After 72 h, CCK-8 was added at 10 μL/well for incubation for 4 h, then absorbance was measured at 450 nm with an Envision plate reader, and inhibition rate was calculated. Inhibition rate (%)=(mean value of negative control group−mean value of experimental group)/(mean value of negative control group−mean value of blank group)×100%. A dose-response curve was fitted by four-parameter analysis, with the logarithm of compound concentration as abscissa and inhibition rate as ordinate, so that IC50 was calculated.

Assay [2] has as its target T1, AKT1 (S473) (Homo sapiens, UniProt P31749).
T1 construct: endogenous in cells; host or cells: LNcap cells
The experiment in a line: Inhibitory effect on phosphorylation of LNcap cells AKT1 (S473). In kind it is cell-based. The settings on record: 1 h incubation. How it is done: LNcap cells AKT1 (S473) growing at log phase were taken, digested with 1 mL of pancreatin for 3 min, and added with 4 mL of complete medium to terminate digestion. The cells were added to a centrifuge tube. 20 μL of cells were taken and counted, the required number of cells (mL) was taken and centrifuged at 1200 rpm for 5 min, and a plating medium (2% FBS+phenol-free red 1640 base medium+1% sodium pyruvate+1% glutamine) was added to adjust the cell density to about 1×10E6 cells/mL. The cells were plated (96 wells) at the above cell density (100 μL/well), and cultured in a cell incubator at 37° C., 5% CO2 overnight; the next day, according to the plate distribution, the corresponding compound was sprayed using a nanoliter pipettor and incubated for 1 h at 37° C. in a cell incubator containing 5% CO2; the supernatant was discarded, and the plate was added with 40 μL of lysis buffer (1×) containing blocking buffer and incubated by shaking at room temperature for 30 min. After the mixture was mixed, 16 μL of lysate was transferred to another 384-well small-volume white plate. The plate was added with 4 μL of pre-mixed antibody (v/v) in assay buffer, covered, centrifuged to mix well, and incubated overnight at room temperature. The 665 nm/620 nm signal value was detected using a PE Envision multi-functional microplate reader, and IC50 was calculated by four-parameter fitting.

[3] abbreviates: LNcap cells, CCK-8, read-out: LNcap cells IC50.
[4] abbreviates: LNCaP, read-out: LNcap cells IC50.

Like-named read-outs stand apart in the source and are kept apart here.

T1 sequence (P31749 whole entry): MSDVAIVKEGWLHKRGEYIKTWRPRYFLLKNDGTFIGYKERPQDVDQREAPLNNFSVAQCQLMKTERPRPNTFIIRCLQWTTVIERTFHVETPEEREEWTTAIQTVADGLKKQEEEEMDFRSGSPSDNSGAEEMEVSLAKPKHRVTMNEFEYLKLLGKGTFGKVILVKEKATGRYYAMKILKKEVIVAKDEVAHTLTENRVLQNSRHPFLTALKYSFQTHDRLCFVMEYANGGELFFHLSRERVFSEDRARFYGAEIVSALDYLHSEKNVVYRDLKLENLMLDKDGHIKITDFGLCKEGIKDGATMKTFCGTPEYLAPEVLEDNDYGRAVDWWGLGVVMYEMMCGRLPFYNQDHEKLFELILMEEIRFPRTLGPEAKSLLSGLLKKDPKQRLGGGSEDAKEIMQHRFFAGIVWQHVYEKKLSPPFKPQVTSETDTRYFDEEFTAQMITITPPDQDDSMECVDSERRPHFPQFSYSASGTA

As to `CC#CC(=O)N1CCCC1c1cccc(-c2ccc3nc(-c4cccnc4N)n(-c4ccc(C5(N)CCC5)cc4)c3n2)c1` (centres unmarked) [Compound 1], the IC50 in assay [1] (setting [3]) was found to be 16 nM; in assay [2], 34 nM.
Taken in the same sequence, the figures for `C=CC(=O)NCc1cccc(-c2ccc3nc(-c4cccnc4N)n(-c4ccc(C5(N)CCC5)cc4)c3n2)c1` [Compound 2] were 34 nM and 17 nM.
In the case of `C=CC(=O)Nc1ccc(-c2ccc3nc(-c4cccnc4N)n(-c4ccc(C5(N)CCC5)cc4)c3n2)cc1` [Compound 3], the concentration for half-maximal inhibition (IC50) in assay [1] (setting [4]) was found to be 6.5 nM; in assay [2], 20 nM.
Take `Nc1ncccc1-c1nc2ccc(-c3cccc(N4CC5(CCOCC5)C4)c3)nc2n1-c1ccc(C2(N)CCC2)cc1` [Compound 6]: the IC50 in assay [1] (setting [4]) stood at 15 nM; in assay [2], 54 nM.
Regarding `CC(=O)N1CC[C@@H](N(C)c2cccc(-c3ccc4nc(-c5cccnc5N)n(-c5ccc(C6(N)CCC6)cc5)c4n3)c2)C1` [Compound 7], the 50% inhibitory concentration (IC50) in assay [1] (setting [4]) worked out at 48 nM.
As for `Nc1ncccc1-c1nc2ccc(-c3cccc(N4CCN5C(=O)CCC5C4)c3)nc2n1-c1ccc(C2(N)CCC2)cc1` (centres unmarked) [Compound 9], the 50% inhibitory concentration (IC50) in assay [1] (setting [3]) worked out at 24 nM; in assay [2], 16 nM.
Turning to `CC1CN(C2COC2)CCN1c1cccc(-c2ccc3nc(-c4cccnc4N)n(-c4ccc(C5(N)CCC5)cc4)c3n2)c1` (centres unmarked) [Compound 10], the results for the IC50 in assay [1] (setting [4]) and in assay [2] were 21 nM and 47 nM, respectively.
Consider `Nc1ncccc1-c1nc2ccc(-c3cccc(N4CCN(C5COC5)CC4)c3)nc2n1-c1ccc(C2(N)CCC2)cc1` [Compound 11], for which the IC50 in assay [1] (setting [3]) is 12 nM; in assay [2], 19 nM.
Take `Nc1ncccc1-c1nc2ccc(-c3cccc(N4CC5(COC5)C4)c3)nc2n1-c1ccc(C2(N)CCC2)cc1` [Compound 13]: the IC50 in assay [1] (setting [4]) is 20 nM.
Regarding `CC(=O)N1CC2(C1)CN(c1cccc(-c3ccc4nc(-c5cccnc5N)n(-c5ccc(C6(N)CCC6)cc5)c4n3)c1)C2` [Compound 16], the results for the IC50 in assay [1] (setting [3]) and in assay [2] were 8.7 nM and 19 nM, respectively.
Taken in the same sequence, the figures for `CS(=O)(=O)N1CC2(CN(c3cccc(-c4ccc5nc(-c6cccnc6N)n(-c6ccc(C7(N)CCC7)cc6)c5n4)c3)C2)C1` [Compound 17] were 12 nM and 17 nM.
With `Nc1ncccc1-c1nc2ccc(-c3cccc(N4CC5COCC5C4)c3)nc2n1-c1ccc(C2(N)CCC2)cc1` (centres unmarked) [Compound 18], in assay [1] (setting [4]), the IC50 is 18 nM.
On to `Nc1ncccc1-c1nc2ccc(-c3cccc(N4CCCS4(=O)=O)c3)nc2n1-c1ccc(C2(N)CCC2)cc1` [Compound 20], for which the IC50 in assay [1] (setting [3]) was 15 nM.
Regarding `Nc1ncccc1-c1nc2ccc(-c3cccc(N4CCC(N5CCCC5=O)CC4)c3)nc2n1-c1ccc(C2(N)CCC2)cc1` [Compound 21], the IC50 in assay [1] (setting [3]) is 3 nM; in assay [2], 23 nM.
As to `CC(=O)N(C)[C@@H]1CCN(c2cccc(-c3ccc4nc(-c5cccnc5N)n(-c5ccc(C6(N)CCC6)cc5)c4n3)c2)C1` [Compound 24], the half-inhibitory concentration (IC50) in assay [1] (setting [4]) turned out to be 41 nM.
With `CC(=O)N1CC2CN(c3cccc(-c4ccc5nc(-c6cccnc6N)n(-c6ccc(C7(N)CCC7)cc6)c5n4)c3)CC21` (centres unmarked) [Compound 26], the IC50 in assay [1] (setting [3]) was 14 nM.
Same read-out and setting: then `CC(=O)N(C)C1CCCN(c2cccc(-c3ccc4nc(-c5cccnc5N)n(-c5ccc(C6(N)CCC6)cc5)c4n3)c2)C1` (centres unmarked) [Compound 27], with 20 nM; and `CC(=O)N(C)CCN(C)c1cccc(-c2ccc3nc(-c4cccnc4N)n(-c4ccc(C5(N)CCC5)cc4)c3n2)c1` [Compound 29], with 46 nM.
For `CC(=O)N(C)[C@H]1CCN(c2cccc(-c3ccc4nc(-c5cccnc5N)n(-c5ccc(C6(N)CCC6)cc5)c4n3)c2)C1` [Compound 31], the concentration for half-maximal inhibition (IC50) in assay [1] (setting [4]) is 28 nM.
Consider `CN(C1CCN(c2cccc(-c3ccc4nc(-c5cccnc5N)n(-c5ccc(C6(N)CCC6)cc5)c4n3)c2F)CC1)S(C)(=O)=O` [Compound 32], for which the 50% inhibitory concentration (IC50) in assay [1] (setting [3]) was determined as 4.3 nM; in assay [2], 11 nM.
As to `CN1CC2(CC1=O)CN(c1cccc(-c3ccc4nc(-c5cccnc5N)n(-c5ccc(C6(N)CCC6)cc5)c4n3)c1)C2` [Compound 33], the results for the IC50 in assay [1] (setting [3]) and in assay [2] were 11 nM and 17 nM, respectively.
In the same order, the values of `Nc1ncccc1-c1nc2ccc(-c3cccc(N4CCC(N5CCC(F)(F)C5=O)CC4)c3)nc2n1-c1ccc(C2(N)CCC2)cc1` [Compound 34] are 2.9 nM and 25 nM.
Taken in the same sequence, the figures for `CC(=O)N1CCC2(CC1)CN(c1cccc(-c3ccc4nc(-c5cccnc5N)n(-c5ccc(C6(N)CCC6)cc5)c4n3)c1F)C2` [Compound 35] were 5 nM and 12 nM.
Take `CC(=O)N1CC2(CCN(c3cccc(-c4ccc5nc(-c6cccnc6N)n(-c6ccc(C7(N)CCC7)cc6)c5n4)c3F)C2)C1` [Compound 36]: the 50% inhibitory concentration (IC50) in assay [1] (setting [3]) is 14 nM.
Consider `CC(=O)N1CCC2(C1)CN(c1cccc(-c3ccc4nc(-c5cccnc5N)n(-c5ccc(C6(N)CCC6)cc5)c4n3)c1F)C2` [Compound 37], for which the IC50 in assay [1] (setting [3]) turned out to be 7.6 nM; in assay [2], 11 nM.
Consider `[2H]C1([2H])CC(N2CCCC2=O)CC([2H])([2H])N1c1cccc(-c2ccc3nc(-c4cccnc4N)n(-c4ccc(C5(N)CCC5)cc4)c3n2)c1F` [Compound 38], for which the IC50 was determined as 11 nM in assay [1] (setting [3]) and 13 nM in assay [2].
Turning to `CC1COC(=O)N1C1CCN(c2cccc(-c3ccc4nc(-c5cccnc5N)n(-c5ccc(C6(N)CCC6)cc5)c4n3)c2)CC1` (centres unmarked) [Compound 39], the half-maximal inhibitory concentration (IC50) worked out at 11 nM in assay [1] (setting [4]) and 42 nM in assay [2].
Regarding `CC(=O)N1C[C@@H]2CN(c3cccc(-c4ccc5nc(-c6cccnc6N)n(-c6ccc(C7(N)CCC7)cc6)c5n4)c3F)C[C@@H]2C1` [Compound 40], the IC50 in assay [1] (setting [3]) came out at 19 nM.
For the compound `Nc1ncccc1-c1nc2ccc(-c3cccc(N4CCC(N5CCCCS5(=O)=O)CC4)c3F)nc2n1-c1ccc(C2(N)CCC2)cc1` [Compound 41], the IC50 in assay [1] (setting [3]) worked out at 10 nM; in assay [2], 41 nM.
With `Nc1ncccc1-c1nc2ccc(-c3cccc(N4CCC(N5CCCS5(=O)=O)CC4)c3F)nc2n1-c1ccc(C2(N)CCC2)cc1` [Compound 42], in assay [1] (setting [3]), the 50% inhibitory concentration (IC50) worked out at 21 nM.
Still for that read-out and setting: then `CC(=O)N(C)[C@@H]1C[C@H]2CC[C@@H](C1)N2c1cccc(-c2ccc3nc(-c4cccnc4N)n(-c4ccc(C5(N)CCC5)cc4)c3n2)c1` [Compound 43], with 47 nM; and `CC1CN(c2cccc(-c3ccc4nc(-c5cccnc5N)n(-c5ccc(C6(N)CCC6)cc5)c4n3)c2F)CCC1N1CCCC1=O` (centres unmarked) [Compound 46], with 7.5 nM.
On the same count and under the same terms, then `CC(=O)N1CC2CC(C1)N2c1cccc(-c2ccc3nc(-c4cccnc4N)n(-c4ccc(C5(N)CCC5)cc4)c3n2)c1F` [Compound 47], with 81 nM; and `CC1CC(N2CCCC2=O)CCN1c1cccc(-c2ccc3nc(-c4cccnc4N)n(-c4ccc(C5(N)CCC5)cc4)c3n2)c1` (centres unmarked) [Compound 48], with 6.9 nM; and `CN1CC2(CC1=O)CN(c1cccc(-c3ccc4nc(-c5cccnc5N)n(-c5ccc(C6(N)CCC6)cc5)c4n3)c1F)C2` [Compound 49], with 4 nM.
As to `[2H]C([2H])([2H])N(C(C)=O)C1CCN(c2cccc(-c3ccc4nc(-c5cccnc5N)n(-c5ccc(C6(N)CCC6)cc5)c4n3)c2)CC1` [Compound 54], in assay [1] (setting [4]), the IC50 is 2.2 nM.
`[2H]C([2H])([2H])N(C(C)=O)C1CCN(c2cccc(-c3ccc4nc(-c5cccnc5N)n(-c5ccc(C6(N)CCC6)cc5)c4n3)c2F)CC1` [Compound 55]: the values for the 50% inhibitory concentration (IC50) in assay [1] (setting [3]) and in assay [2] were 2.1 nM and 7.1 nM, respectively.
